How the values were obtained:
[1] = biological target: T1, GC-C receptor, GC-C-expressing T84 cell line (Homo sapiens, UniProt P25092); assay: T84 cell cyclic GMP bioassay; format: cell-based
T1 construct: measuring cyclic GMP synthesis in the GC-C-expressing T84 cell line; endogenous in cells; host or cells: T84 colon carcinoma cells
Experimental: Bioassay of huUgnA-like activity. The concentration of huUgnA-like bioactivity in infused peptide solutions and in urine collected during experiments was measured using a T84 cell-based bioassay, as described previously. T84 cells are a colon carcinoma cell line that increases cyclic GMP production in response to GC-C receptor agonists such as Ugn, Gn and ST core peptide. T84 cells were grown to near confluence in 12 well culture clusters, and then incubated with unknowns or standard concentrations of huUgnA. Standards or urine samples were diluted into bioassay medium (1 mM 3-isobutyl-1-methylxanthine, 0.03 mM phenol red, 137 mM NaCl, 5.4 mM KCl, 0.25 mM Na2HPO4, 0.44 mM KH2PO4, 1.3 mM CaCl2, 1.0 mM MgSO4, 4.2 mM NaHCO3, 10 mM HEPES buffered at pH 7.0) and the pH was adjusted to 7.0, if required, using the phenol red indicator dye as a guide. This pH adjustment was necessary, as it is well-established that the response of T84 cells to UGn is highly pH dependent. The broad spectrum phosphodiesterase inhibitor (isobutyl methylxanthine) was included to prevent degradation of cyclic GMP. After 30 min, the cells were lysed and cyclic GMP levels measured by radioimmunoassay (Biomedical Technologies Inc Stoughton Mass.). Standards and unknowns were assayed in triplicate. […]

Mice = assay: Natriuretic response in mice; format: in vivo, mouse

T1 sequence (P25092 24-1073): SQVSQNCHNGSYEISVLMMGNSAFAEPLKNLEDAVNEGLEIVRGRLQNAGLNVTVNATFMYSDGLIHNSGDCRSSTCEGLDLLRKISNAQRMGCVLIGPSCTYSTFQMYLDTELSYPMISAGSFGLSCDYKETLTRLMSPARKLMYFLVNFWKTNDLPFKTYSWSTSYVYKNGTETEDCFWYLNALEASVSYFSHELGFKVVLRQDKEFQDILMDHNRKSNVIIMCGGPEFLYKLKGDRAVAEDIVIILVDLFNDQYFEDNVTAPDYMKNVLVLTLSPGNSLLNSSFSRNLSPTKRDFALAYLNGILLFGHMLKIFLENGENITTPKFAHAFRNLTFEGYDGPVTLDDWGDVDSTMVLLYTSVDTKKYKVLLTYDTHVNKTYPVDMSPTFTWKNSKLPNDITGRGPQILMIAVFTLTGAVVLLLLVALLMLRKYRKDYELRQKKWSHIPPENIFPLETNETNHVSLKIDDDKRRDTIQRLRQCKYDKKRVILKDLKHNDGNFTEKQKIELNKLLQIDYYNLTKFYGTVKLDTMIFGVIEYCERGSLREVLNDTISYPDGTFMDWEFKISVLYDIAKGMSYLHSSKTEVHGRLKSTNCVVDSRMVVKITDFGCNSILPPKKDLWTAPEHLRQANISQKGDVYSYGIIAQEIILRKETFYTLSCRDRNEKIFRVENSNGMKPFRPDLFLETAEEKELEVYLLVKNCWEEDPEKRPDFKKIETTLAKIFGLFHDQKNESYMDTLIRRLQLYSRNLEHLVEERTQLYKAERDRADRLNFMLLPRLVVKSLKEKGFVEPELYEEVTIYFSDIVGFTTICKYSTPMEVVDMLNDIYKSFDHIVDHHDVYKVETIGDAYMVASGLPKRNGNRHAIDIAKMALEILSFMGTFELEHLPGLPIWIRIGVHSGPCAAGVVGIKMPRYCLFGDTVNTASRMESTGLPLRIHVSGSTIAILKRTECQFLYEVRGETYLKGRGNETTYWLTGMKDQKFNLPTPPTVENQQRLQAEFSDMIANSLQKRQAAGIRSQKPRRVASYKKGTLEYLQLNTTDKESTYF

CC(C)C[C@H](NC(=O)[C@@H]1CSSC[C@@H]2NC(=O)[C@H](CC(C)C)NC(=O)[C@H](CCC(=O)O)NC(=O)[C@@H](NC(=O)[C@H](CC(=O)O)NC(=O)[C@H](CC(=O)O)NC(=O)[C@@H](N)CC(N)=O)CSSC[C@H](NC(=O)[C@H](C)NC(=O)[C@H](C(C)C)NC(=O)[C@H](CC(N)=O)NC(=O)[C@H](C(C)C)NC2=O)C(=O)N[C@@H]([C@@H](C)O)C(=O)NCC(=O)N1)C(=O)O (single isomer, unassigned) [huUgnB, Asn Asp Asp Cys Glu Leu Cys Val Asn Val Ala Cys Thr Gly Cys Leu]
T84 cell cGMP response on co-application of huUgnA and B ([1]; 25 nM huUgnA with 180 nM huUgnB (FIG. 2B)): not different from those evoked by huUgnA alone | potency in activating cyclic GMP synthesis, fold less potent than the A isoform ([1]; GC-C-expressing T84 cell line): more than 100 fold | natriuretic response (Mice): exhibit a natriuretic response

Source: US20120028897A1, “METHODS AND COMPOSITIONS FOR THE TREATMENT OF FLUID RETENTION DISORDERS” (priority 2008, published 2012)
